Calls of active or inactive are those of the source. The calls are words filed in the database; no cut-off is given here.
Experiments:
HT-29 [1] = assay: Antiproliferative activity against human HT-29 cells after 72 hrs by MTT assay; type: functional, cell-based; conditions: HT-29, 72 h
Jurkat [2] = assay: Induction of reactive oxygen species in human Jurkat cells after 48 hrs by flow cytometry analysis; type: functional, cell-based
Jurkat [3] = assay: Induction of apoptosis in human Jurkat cells assessed as early apoptotic cells at 10 uM after 48 hrs by annexin-V-FITC/PI staining based flow cytometry; type: functional, cell-based
Mus musculus = species on record: Mus musculus; assay: Induction of apoptosis in C57BL/6 mouse liver mitochondrial assessed as cytochrome c release after 1 hr by immunoblotting method; type: functional; conditions: Mitochondria
HT-29 [4] = assay: Antiproliferative activity against human HT-29 cells after 96 hrs by MTT assay; type: functional, cell-based; conditions: HT-29, 96 h
HEK293 [5] = assay: Antiproliferative activity against human HEK293 cells incubated with 2000 cells per well after 48 hrs by MTT assay; type: cell-based; conditions: HEK293, 48 h
HEK293 [6] = assay: Antiproliferative activity against human HEK293 cells incubated with 3000 cells per well after 48 hrs by MTT assay; type: cell-based; conditions: HEK293, 48 h
K562 [7] = assay: Induction of reactive oxygen species in human K562 cells after 48 hrs by flow cytometry analysis; type: functional, cell-based
Jurkat [8] = assay: Induction of apoptosis in human Jurkat cells assessed as increase in cleaved PARP-1 level at 20 uM after 48 hrs by immunoblotting; type: functional, cell-based
MCF7 = assay: Antiproliferative activity against human MCF7 cells after 48 hrs by MTT assay; type: functional, cell-based; conditions: MCF7, 48 h
K562 [9] = assay: Induction of apoptosis in human K562 cells assessed as early apoptotic cells at 10 uM after 48 hrs by annexin-V-FITC/PI staining based flow cytometry; type: functional, cell-based
K562 [10] = assay: Induction of apoptosis in human K562 cells after 48 hrs at 50 uM by annexin-V-FITC/PI staining based flow cytometry; type: functional, cell-based
HepG2 = assay: Antiproliferative activity against human HepG2 cells after 48 hrs by MTT assay; type: functional, cell-based; conditions: HepG2, 48 h
Jurkat [11] = assay: Induction of reactive oxygen species in human Jurkat cells at >= 50 uM after 48 hrs by flow cytometry analysis; type: functional, cell-based
K562 [12] = assay: Induction of reactive oxygen species in human K562 cells at >= 50 uM after 48 hrs by flow cytometry analysis; type: functional, cell-based
Jurkat [13] = assay: Induction of apoptosis in human Jurkat cells assessed as increase in cleaved PARP-1 level at 50 and 100 uM after 48 hrs by immunoblotting; type: functional, cell-based
Jurkat [14] = assay: Induction of apoptosis in human Jurkat cells after 48 hrs at 50 uM by annexin-V-FITC/PI staining based flow cytometry; type: functional, cell-based
Jurkat [15] = assay: Induction of apoptosis in human Jurkat cells assessed as late apoptotic cells at 25 uM after 48 hrs by annexin-V-FITC/PI staining based flow cytometry; type: functional, cell-based
K562 [16] = assay: Induction of apoptosis in human K562 cells assessed as late apoptotic cells at 25 uM after 48 hrs by annexin-V-FITC/PI staining based flow cytometry; type: functional, cell-based
K562 [17] = assay: Induction of apoptosis in human K562 cells assessed as early apoptotic cells at 25 uM after 48 hrs by annexin-V-FITC/PI staining based flow cytometry; type: functional, cell-based
Jurkat [18] = assay: Induction of apoptosis in human Jurkat cells assessed as early apoptotic cells at 25 uM after 48 hrs by annexin-V-FITC/PI staining based flow cytometry; type: functional, cell-based

Structure (SMILES)	EC50 (HT-29 [1])	Activity (Jurkat [2])	Activity (Mus musculus)	EC50 (HT-29 [4])	EC50 (HEK293 [5])	Activity (K562 [7])	EC50 (MCF7)	also measured
COc1ccc(S(=O)(=O)n2c3ccccc3c3nnsc32)cc1	7.97 µM	Dose-dependent effect	inactive	6.97 µM	15.3 µM	Dose-dependent effect	12.9 µM	Activity (Jurkat [3]): Active; EC50 (HEK293 [6]): 12.3 µM; Activity (Jurkat [8]): Active; Activity (K562 [9]): Active
O=C(c1ccc(Cl)cc1)n1c2ccccc2c2nnsc21	49.4 µM	–	inactive	52.3 µM	–	–	–	Activity (K562 [10]): Active; EC50 (HepG2): 60.2 µM; Activity (Jurkat [11]): Active; Activity (K562 [12]): Active; Activity (Jurkat [13]): Active; Activity (Jurkat [14]): Active
Clc1ccc2[nH]c3snnc3c2c1	26.2 µM	Dose-dependent effect	–	33.8 µM	24.4 µM	Dose-dependent effect	31.2 µM	Activity (Jurkat [15]): Active; Activity (K562 [16]): Active; Activity (K562 [17]): Active; Activity (Jurkat [18]): Active
